Assays:
Assay type in all cases: cell-based
ANO1/CaCC (TMEM16A) [1] = target: T1, ANO1/CaCC (TMEM16A) (Homo sapiens, UniProt Q5XXA6); test: Eact-induced short-circuit current in ANO1-expressing FRT cells, […]
T1 construct: ANO1 cDNA
T1 sequence (Q5XXA6 1-986): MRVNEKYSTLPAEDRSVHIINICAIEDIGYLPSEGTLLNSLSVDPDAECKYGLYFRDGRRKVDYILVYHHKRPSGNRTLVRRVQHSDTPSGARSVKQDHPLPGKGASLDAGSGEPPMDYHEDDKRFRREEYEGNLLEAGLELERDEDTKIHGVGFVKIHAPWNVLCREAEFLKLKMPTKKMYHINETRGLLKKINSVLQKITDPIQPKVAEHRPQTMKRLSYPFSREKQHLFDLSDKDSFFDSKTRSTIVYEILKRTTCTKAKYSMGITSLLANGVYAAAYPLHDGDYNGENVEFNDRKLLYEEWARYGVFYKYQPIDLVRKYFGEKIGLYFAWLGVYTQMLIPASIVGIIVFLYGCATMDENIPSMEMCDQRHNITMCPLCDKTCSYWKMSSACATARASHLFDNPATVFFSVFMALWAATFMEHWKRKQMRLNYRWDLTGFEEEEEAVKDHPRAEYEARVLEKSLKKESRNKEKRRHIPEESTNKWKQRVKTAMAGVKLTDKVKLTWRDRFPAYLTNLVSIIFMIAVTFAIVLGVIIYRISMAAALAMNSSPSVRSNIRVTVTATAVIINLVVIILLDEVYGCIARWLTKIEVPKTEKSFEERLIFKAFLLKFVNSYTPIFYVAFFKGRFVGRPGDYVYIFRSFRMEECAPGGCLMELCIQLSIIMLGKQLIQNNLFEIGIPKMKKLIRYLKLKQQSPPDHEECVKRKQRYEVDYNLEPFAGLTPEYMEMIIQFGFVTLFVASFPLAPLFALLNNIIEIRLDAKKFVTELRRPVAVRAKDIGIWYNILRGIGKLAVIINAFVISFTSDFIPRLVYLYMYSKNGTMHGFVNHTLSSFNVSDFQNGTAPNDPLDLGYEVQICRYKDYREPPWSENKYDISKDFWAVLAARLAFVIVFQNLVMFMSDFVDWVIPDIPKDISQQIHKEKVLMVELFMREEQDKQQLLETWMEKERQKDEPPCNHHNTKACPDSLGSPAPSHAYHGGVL

[2] = target: T2, cystic fibrosis transmembrane conductance regulator (CFTR) (Homo sapiens, UniProt P13569); test: gradient concentrations inhibiting lignan-activated CFTR iodide influx in FRT cells
T2 construct: human wild-type CFTR cDNA
T2 sequence (P13569 whole entry): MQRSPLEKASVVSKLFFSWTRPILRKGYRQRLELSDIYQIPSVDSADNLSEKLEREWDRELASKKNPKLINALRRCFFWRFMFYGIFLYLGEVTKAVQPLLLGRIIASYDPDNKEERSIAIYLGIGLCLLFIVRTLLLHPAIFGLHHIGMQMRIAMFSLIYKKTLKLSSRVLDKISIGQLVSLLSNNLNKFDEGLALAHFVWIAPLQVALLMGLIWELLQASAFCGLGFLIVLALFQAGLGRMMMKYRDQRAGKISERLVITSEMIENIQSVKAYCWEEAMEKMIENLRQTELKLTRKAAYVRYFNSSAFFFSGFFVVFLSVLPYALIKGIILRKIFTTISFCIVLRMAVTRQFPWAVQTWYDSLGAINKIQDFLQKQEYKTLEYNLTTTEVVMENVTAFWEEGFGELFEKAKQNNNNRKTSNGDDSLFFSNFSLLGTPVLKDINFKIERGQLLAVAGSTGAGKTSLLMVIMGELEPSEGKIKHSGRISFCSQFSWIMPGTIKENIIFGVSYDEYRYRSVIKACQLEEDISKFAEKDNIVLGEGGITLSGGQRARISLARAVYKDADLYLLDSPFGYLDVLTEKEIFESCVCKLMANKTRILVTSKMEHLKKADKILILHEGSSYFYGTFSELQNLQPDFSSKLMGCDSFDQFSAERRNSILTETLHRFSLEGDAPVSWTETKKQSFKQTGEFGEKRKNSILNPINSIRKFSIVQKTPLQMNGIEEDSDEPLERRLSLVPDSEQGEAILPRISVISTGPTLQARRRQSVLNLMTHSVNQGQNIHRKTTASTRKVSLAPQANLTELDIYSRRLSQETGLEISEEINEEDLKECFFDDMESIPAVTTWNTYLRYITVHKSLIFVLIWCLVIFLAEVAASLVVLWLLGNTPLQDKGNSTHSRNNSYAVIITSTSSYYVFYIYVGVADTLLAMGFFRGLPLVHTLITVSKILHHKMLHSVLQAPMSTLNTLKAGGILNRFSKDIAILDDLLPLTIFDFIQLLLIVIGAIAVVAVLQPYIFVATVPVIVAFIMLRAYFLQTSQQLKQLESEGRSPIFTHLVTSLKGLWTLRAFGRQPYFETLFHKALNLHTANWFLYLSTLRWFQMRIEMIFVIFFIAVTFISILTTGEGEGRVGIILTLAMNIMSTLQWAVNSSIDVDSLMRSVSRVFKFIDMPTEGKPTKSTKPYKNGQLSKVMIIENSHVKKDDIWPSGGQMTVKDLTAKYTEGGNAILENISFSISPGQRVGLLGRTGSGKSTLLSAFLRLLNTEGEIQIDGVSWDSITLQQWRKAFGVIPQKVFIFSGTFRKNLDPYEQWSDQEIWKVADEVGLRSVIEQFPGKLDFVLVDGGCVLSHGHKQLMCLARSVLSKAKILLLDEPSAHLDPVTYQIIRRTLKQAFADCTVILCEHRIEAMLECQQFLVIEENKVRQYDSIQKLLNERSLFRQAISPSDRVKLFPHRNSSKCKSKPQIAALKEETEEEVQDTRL

ANO1/CaCC (TMEM16A) [3] = target: T1, ANO1/CaCC (TMEM16A); test: Eact-induced short-circuit current in ANO1-expressing FRT cells

`CCc1c(C)nc(SCC(=O)Nc2nc(-c3ccc(OC)cc3)cs2)[nH]c1=O` [16A, T16Ainh-A01] was tested, and the “Eact-induced short-circuit current in ANO1-expressing FRT cells, 30 μM” value (ANO1/CaCC (TMEM16A) [1]) was “Eact-induced ANO1-mediated short-circuit current was completely abolished by the specific inhibitor of ANO1 T16Ainh-A01”.

With `O=C(O)c1ccc(/C=C2\SC(=S)N(c3cccc(C(F)(F)F)c3)C2=O)cc1` [compound 172, CFTRinh-172] the “gradient concentrations inhibiting lignan-activated CFTR iodide influx in FRT ce” value [2] was “activation effect of these compounds could be inhibited by gradient concentrations of the known CFTR inhibitor CFTRinh-172”.

Compound `COc1ccc([C@H]2OC[C@H]3[C@@H]2CO[C@@H]3c2ccc(OC)c(OC)c2)cc1OC` [eudesmin] has an IC50 (ANO1/CaCC (TMEM16A) [3]) of 200 µM.

Source: publication PMC4658577 (Frontiers in Plant Science, 2015)
